Experimental data: US7371742B2, “Porphyrin derivatives for photodynamic therapy” (Institut Curie, priority 2001, dated 2008)
Where two headings read alike, the source gives them in different places.

Legend:
L-1210 cells = assay: Cytotoxicity L-1210 (no light), cytostatic activity; format: cell-based, human; conditions: for Cytotoxicity L-1210 (no light), concentration giving 50%: 50% effect; for Cytotoxicity L-1210 (no light), cell marked Red: cell prints 'Red', concentration not given
Text: Column L1210 corresponds to the cytostatic activity.

[1] = system: RBY-79 (indifferently named Y-79) cells; assay: RBY-79 (Y79) cell cytotoxicity / photocytotoxicity
Text: Columns HT29 and Y79 (═RBY79), without light, correspond to the cytotoxic activity.

[2] = system: human colic adenocarcinoma cell line HT29; assay: HT29 cell survival (MTT assay) after 24 h incubation, with or without light irradiation; conditions: for Photocytotoxicity HT 29, concentration giving 50%: 50% effect; for cytotoxic for HT29 (in words): remark of the inventors
Description: HT29 cells were cultivated in Dulbecco's MEM supplemented with 10% fetal calf serum (FCS). Cells from log-phase culture were seeded in 24-microwell plates (1 mL-5×10^4 cells/well) and kept at 37° C. in a water-jacketed incubator for 2 days under an air/CO2 atmosphere (5% CO2). Tested compounds, in DMSO solution, were added under the minimum volume (5 μL) to reach a concentration ranging from 0.1 to 10 μg/mL. Controls cells received 5 μL of DMSO free of dye. Plates were incubated 24 h, then medium was removed and the cells were washed twice with phosphate buffered saline (PBS) before addition of fresh medium free of drug and irradiation with visible light using a home made “light box” giving a fluence of 3.8 mW/cm^2 on the whole visible spectrum. Irradiation with red light was carried out using the same device fitted with an orange filter (0% T at 520 nm and 80% T at 590 nm) leading to a fluence of 2 mW/cm^2.
Plates were reincubated for 3 days before evaluation of the cell survival using the MTT assay (T. Mosmann, “Rapid calorimetric assay for cellular growth and survival. Application to proliferation assays”. J. Immunol. Methods 65,55-63,1983) using 30 min incubation with 100 μg well of 3-[4,5-dimethylthiazol-2-yl]-2,5-diphenyl tetrazolium bromide (MTT, Sigma). After removal of the medium, formazan crystals were taken up with 100 μL of DMSO and absorbance at 540 ni was measured with a Bio-Rad microplate reader (model 450); survival was expressed as % of untreated controls.

tumoral cells = assay: Antitumoral photodynamic activity in general (remarks on Tables B and C); format: cell-based, human; conditions: for active when activated by light towards tumoral cells (in words): under appropriate irradiation
Text: The main results for antitumoral effects are reported in Table B, showing the rate of photocytotoxicity. The higher the percentage, the higher the antitumnoral or antiviral effect.
Concerning the antitumoral activity, the compounds obtained by the inventors are active, under appropriate irradiation indicated towards tumoral cells in which these derivatives are able to accumulate.

FT-1 cells = assay: FT-1 cell photocytotoxicity; format: cell-based, human; conditions: for Photocytotoxicity FT-1, Red: Red light, concentration not given
A549 = A549 photocytotoxicity (entries inside Table B cells); format: cell-based; conditions: A549 named inside the cell; concentration not given
[3] = patient, cited from earlier work; for period of photosensitivity: after treatment
[4] = read-out: Y79 IC50 (μM) With 2J/cm^2, irradiation with filter (0% T at 520 nm, 80% T at 590 nm), 3.5 mW/cm^2, 10 min
[5] = read-out: Y79 IC50 (μM) without light, without light (cytotoxic activity)
[6] = with light, compared with its cytotoxicity
[7] = without light, remark of the inventors
[8] = read-out: HT 29 IC50 (μM) with 2J/cm^2, irradiation with filter (0% T at 520 nm, 80% T at 590 nm), 3.5 mW/cm^2, 10 min
[9] = read-out: HT 29 IC50 (μM) without light, without light (cytotoxic activity)

Compound: TPP(p-OC3-S-α-MannOH)3 [Compound 24]
- Cytotoxicity L-1210 (no light), concentration giving 50% (L-1210 cells): 50% 14 μg/ml
- Photocytotoxicity RBY-79, concentration giving 50% ([1]; 50% effect, with light): 6.5 µg/mL
- IC50 [1, 4]: 4.7 µM
- IC50 [1, 5]: 7.5 µM
- phototoxic for Y79 (in words) [1, 6]: less phototoxic
- cytotoxic for Y79 (in words) [1, 7]: cytotoxic
- Photocytotoxicity HT 29, concentration giving 50% ([2]; with light): 4.6 µg/mL
- IC50 [2, 8]: 3.2 µM
- IC50 [2, 9]: 3.2 µM
- phototoxic for HT29 (in words) [2, 6]: less phototoxic
- cytotoxic for HT29 (in words) ([2]; without light): cytotoxic
- active when activated by light towards tumoral cells (in words) (tumoral cells): active

Compound: O[C@@H]1[C@@H](O)[C@H](SCc2ccc(-c3c4nc(c(-c5ccc(CS[C@@H]6OC[C@@H](O)[C@H](O)[C@H]6O)cc5)c5ccc([nH]5)c(-c5ccc(CS[C@@H]6OC[C@@H](O)[C@H](O)[C@H]6O)cc5)c5nc(c(-c6ccc(CS[C@@H]7OC[C@@H](O)[C@H](O)[C@H]7O)cc6)c6ccc3[nH]6)C=C5)C=C4)cc2)OC[C@H]1O [Compound 64, TPP(p-CH2-S-β-XylOH)4]
- Cytotoxicity L-1210 (no light), % at 10 μg/ml (L-1210 cells): 32%
- RBY-79, concentration giving 50% with light or not ([1]; 50% effect, with light or not): 50% at 7 μg/ml
- Y79 IC50 (μM) With 2J/cm^2 ([1]; irradiation with filter (0% T at 520 nm, 80% T at 590 nm), 3.5 mW/cm^2, 10 min): Inactive
- IC50 [1, 5]: 3.8 µM
- cytotoxic for Y79 (in words) [1, 7]: cytotoxic
- Photocytotoxicity HT 29, % at 10 μg/ml ([2]; 10 μg/ml): 30% at
- IC50 [2, 8]: 4.5 µM
- IC50 [2, 9]: > 10 µM

Compound: OC[C@H]1O[C@@H](Oc2cccc(-c3c4nc(c(-c5cccc(O[C@@H]6O[C@H](CO)[C@@H](O)[C@H](O)[C@H]6O)c5)c5ccc([nH]5)c(-c5cccc(O[C@@H]6O[C@H](CO)[C@@H](O)[C@H](O)[C@H]6O)c5)c5nc(c(-c6ccccc6)c6ccc3[nH]6)C=C5)C=C4)c2)[C@H](O)[C@@H](O)[C@@H]1O [Compound 60]
- Photocytotoxicity FT-1 (FT-1 cells; concentration and light not given): 0%
- Photocytotoxicity A549 (A549): A549, 20%

Compound: benzoporphyrin derivative monoacid ring A [Verteporfin]
- period of photosensitivity [3]: one day

Compound: 5,10,15-Tri(3-O-β-D-glucosylphenyl)-2,3-chlorin and 5,10,15-tri(3-O-β-D-glucosylphenyl)-7,8-chlorin [Compound 55]
- Photocytotoxicity FT-1, Red (FT-1 cells): 25%
- IC50 [1, 4]: 3.7 ± 1.8 µM
- IC50 [1, 5]: 8 ± 7 µM
- cytotoxic for Y79 (in words) [1, 7]: cytotoxic
- Photocytotoxicity A549 (A549): A549, 10%
- Photocytotoxicity HT 29, Red ([2]; Red light, concentration not given): Red, 0%
- IC50 [2, 8]: 5.7 ± 3 µM
- IC50 [2, 9]: > 15 µM

Compound: OC[C@H]1O[C@H](OCCOCCOc2ccc(-c3c4nc(c(-c5ccc(OCCOCCO[C@H]6O[C@H](CO)[C@@H](O)[C@H](O)[C@@H]6O)cc5)c5ccc([nH]5)c(-c5ccc(OCCOCCO[C@H]6O[C@H](CO)[C@@H](O)[C@H](O)[C@@H]6O)cc5)c5nc(c(-c6ccccc6)c6ccc3[nH]6)C=C5)C=C4)cc2)[C@@H](O)[C@@H](O)[C@@H]1O [Compound 67, TPP(p-O-DEG-O-α-Mann)3]
- Cytotoxicity L-1210 (no light), concentration giving 50% (L-1210 cells): 50% 8 μg/ml
- Photocytotoxicity RBY-79, % at 1 μg/ml ([1]; 1 μg/ml): 0% at 1 μg/ml
- Photocytotoxicity RBY-79, % at 2 μg/ml ([1]; 2 μg/ml): 80% at 2 μg/ml,
- Photocytotoxicity RBY-79, concentration giving 50% ([1]; 50% effect, with light): 50% at 1.5 μg/ml,
- IC50 [1, 4]: 0.3 ± 0.08 µM
- IC50 [1, 5]: > 10 µM
- Photocytotoxicity HT 29, concentration giving 50% ([2]; with light): 1.5 µg/mL
- IC50 [2, 8]: 0.7 ± 0.4 µM
- IC50 [2, 9]: > 10 µM

Compound: OC[C@H]1O[C@@H](OCCOc2cccc(-c3c4nc(c(-c5cccc(OCCO[C@@H]6O[C@H](CO)[C@@H](O)[C@H](O)[C@H]6O)c5)c5ccc([nH]5)c(-c5cccc(OCCO[C@@H]6O[C@H](CO)[C@@H](O)[C@H](O)[C@H]6O)c5)c5nc(c(-c6cccc(OCCO[C@@H]7O[C@H](CO)[C@@H](O)[C@H](O)[C@H]7O)c6)c6ccc3[nH]6)CC5)C=C4)c2)[C@H](O)[C@@H](O)[C@@H]1O [Compound 58]
- Cytotoxicity L-1210 (no light), cell marked Red (L-1210 cells): Red, 0, A549%
- Photocytotoxicity FT-1, Red (FT-1 cells): Red 0%

Compound: TPP(p-OC3-S-β-GluOH)3 [Compound 23]
- Cytotoxicity L-1210 (no light), % at 10 μg/ml (L-1210 cells): 0% 10 μg/ml
- Photocytotoxicity RBY-79, concentration giving 50% ([1]; 50% effect, with light): 3 µg/mL
- IC50 [1, 4]: 6.5 µM
- IC50 [1, 5]: > 10 µM
- Photocytotoxicity HT 29, concentration giving 50% ([2]; with light): 6 µg/mL
- IC50 [2, 8]: 11 µM
- IC50 [2, 9]: 13 µM

Compound: OC[C@H]1O[C@@H](Sc2c(F)c(F)c(-c3c4nc(c(-c5c(F)c(F)c(S[C@@H]6O[C@H](CO)[C@@H](O)[C@H](O)[C@H]6O)c(F)c5F)c5ccc([nH]5)c(-c5c(F)c(F)c(S[C@@H]6O[C@H](CO)[C@@H](O)[C@H](O)[C@H]6O)c(F)c5F)c5nc(c(-c6c(F)c(F)c(S[C@@H]7O[C@H](CO)[C@@H](O)[C@H](O)[C@H]7O)c(F)c6F)c6ccc3[nH]6)C=C5)C=C4)c(F)c2F)[C@H](O)[C@@H](O)[C@@H]1O [Compound 25, TPP F4(p-S-β-GluOH)4]
- Cytotoxicity L-1210 (no light), % at 10 μg/ml (L-1210 cells): 18% 10 μg/ml
- Photocytotoxicity RBY-79, concentration giving 50% ([1]; 50% effect, with light): inactive
- IC50 [1, 4]: 4 µM
- IC50 [1, 5]: > 10 µM
- Photocytotoxicity HT 29, concentration giving 50% ([2]; with light): inactive
- IC50 [2, 8]: > 10 µM
- IC50 [2, 9]: > 10 µM

Compound: 5,10,15-tri(para-O-diethyleneglycoloxyphenyl)-20-phenylporphyrin [Compound 75]
- IC50 [1, 4]: 1.2 µM
- IC50 [1, 5]: 4.5 µM
- IC50 [2, 8]: 4.3 µM
- IC50 [2, 9]: 6.5 µM
- biological activities (in words) (tumoral cells; non glycosylated analogue compared with compound 67): totally inactive

Compound: porfimer sodium [Photofrin ®, reference compound]
- IC50 ([1]; read-out: Y79 IC50 With 2J/cm^2, estimated concentration, with 2J/cm^2, estimated for mean molecular weight 1178.55 dimer form): 2.6 µM
- IC50 ([1]; read-out: Y79 IC50 without light, estimated concentration, without light, estimated for mean molecular weight 1178.55 dimer form): 3.9 µM
- concentration at which cytotoxic for the Y79 cells ([1]; remark of the inventors): more than 3,9 μM
- Y79 IC50 With 2J/cm^2, in μg/ml ([1]; with 2J/cm^2): 3 µg/mL
- Y79 IC50 without light ([1]; without light): 4.6 µg/mL
- cytotoxic for Y79 (in words) [1, 7]: cytotoxic
- IC50 ([2]; read-out: HT 29 IC50 with 2J/cm^2, estimated concentration, with 2J/cm^2, estimated for mean molecular weight 1178.55 dimer form): 5.1 µM
- HT 29 IC50 with 2J/cm^2, in μg/ml ([2]; with 2J/cm^2): 6 µg/mL
- HT 29 IC50 without light, in μg/ml ([2]; without light): Inactive for 10 μg/ml
- time the drug stays in the skin after treatment ([3]; makes sensitive to strong light): approximately 30 days
- period of photosensitivity [3]: several weeks

Compound: TPC(m-O-β-GluOH)4 [Compound 54]
- Photocytotoxicity FT-1, Red (FT-1 cells): 20%
- IC50 [1, 4]: 3 ± 1.4 µM
- IC50 [1, 5]: 3.9 ± 0.1 µM
- cytotoxic for Y79 (in words) [1, 7]: cytotoxic
- Photocytotoxicity A549 (A549): 0, A549, 0%
- IC50 [2, 8]: 4.4 ± 0.1 µM
- IC50 [2, 9]: > 15 µM

Compound: TPP F4(p-S-β-GluOH)3 [Compound 26]
- Cytotoxicity L-1210 (no light), % at 10 μg/ml (L-1210 cells): 20% 10 μg/ml
- Photocytotoxicity RBY-79, concentration giving 50% ([1]; 50% effect, with light): 3.3 µg/mL
- IC50 [1, 4]: 2.2 µM
- IC50 [1, 5]: > 10 µM
- Photocytotoxicity HT 29, concentration giving 50% ([2]; with light): 50% 2 μg/ml
- IC50 [2, 8]: 1.7 µM
- IC50 [2, 9]: 6.5 µM
- cytotoxic for HT29 (in words) ([2]; without light): cytotoxic
- active when activated by light towards tumoral cells (in words) (tumoral cells): active

Compound: O[C@@H]1[C@@H](O)[C@H](Sc2c(F)c(F)c(-c3c4nc(c(-c5c(F)c(F)c(S[C@@H]6OC[C@@H](O)[C@H](O)[C@H]6O)c(F)c5F)c5ccc([nH]5)c(-c5c(F)c(F)c(S[C@@H]6OC[C@@H](O)[C@H](O)[C@H]6O)c(F)c5F)c5nc(c(-c6c(F)c(F)c(F)c(F)c6F)c6ccc3[nH]6)C=C5)C=C4)c(F)c2F)OC[C@H]1O [Compound 28, TPP F4(p-S-β-XylOH)3]
- Cytotoxicity L-1210 (no light), concentration giving 50% (L-1210 cells): 50% 9 μg/ml
- Photocytotoxicity RBY-79, concentration giving 50% ([1]; 50% effect, with light): 1.7 µg/mL
- IC50 [1, 4]: 1.2 µM
- IC50 [1, 5]: > 10 µM
- Photocytotoxicity HT 29, concentration giving 50% ([2]; with light): 50% 3.7 μg/ml
- IC50 [2, 8]: 2.6 µM
- IC50 [2, 9]: > 10 µM

Compound: OC[C@H]1O[C@@H](OCCOc2cccc(-c3c4nc(c(-c5cccc(OCCO[C@@H]6O[C@H](CO)[C@@H](O)[C@H](O)[C@H]6O)c5)c5ccc([nH]5)c(-c5cccc(OCCO[C@@H]6O[C@H](CO)[C@@H](O)[C@H](O)[C@H]6O)c5)c5nc(c(-c6cccc(OCCO[C@@H]7O[C@H](CO)[C@@H](O)[C@H](O)[C@H]7O)c6)c6ccc3[nH]6)C=C5)C=C4)c2)[C@H](O)[C@@H](O)[C@@H]1O [Compound 61]
- Cytotoxicity L-1210 (no light), cell marked Red (L-1210 cells): Red, 0%
- Photocytotoxicity FT-1, Red (FT-1 cells): Red 0%
- Photocytotoxicity A549 (A549): A549, 0%
